Source: patent US9796719B2, “Compounds and pharmaceutical compositions thereof for the treatment of inflammatory disorders” (GALAPAGOS NV, priority 2013, dated 2017)

Columns and labels:
[1] = tested on: cells recovered in the BALF; experiment: Tobacco smoke (TS) model, lungs inflammatory cells recruitment; format: in vivo, mouse; settings: TS-exposed mice
Method: The aim of this experiment is to evaluate the efficacy and potency of a test compound administered p.o., once or twice daily on days 6 to 11, vs reference compounds, on pulmonary inflammation induced by 11 days of TS-exposure in female C57BL/6J mice, by assessing the effect of a test compound on the tobacco smoke induced recruitment of inflammatory cells to the lungs.
The test compounds are formulated in PEG200/0.5% methylcellulose (25/75, v/v) and are given at a dose volume of 10 mL/kg. Roflumilast and Dexamethasone are included as positive […] control, respectively. Each treatment group consists of 10 mice.
A first group of mice is subjected to daily TS-exposure for 5 consecutive days and sacrificed on the day 6, 24 h after the final TS-exposure.
A second group is exposed to air for 5 consecutive days (sham exposure) and sacrificed on the day 6, 24 h after the final air-exposure.
Compound and reference-treated groups are subjected to daily TS-exposure for 11 consecutive days and sacrificed on the day 12, 24 h after the final TS-exposure. Mice are dosed p.o. on days 6 to 11, twice daily, 1 h prior to and 6 h after each TS-exposure, with either vehicle, or the test compound at 3, 5, 10 or 30 mg/kg. Another group is dosed p.o. on days 6 to 11, once daily, 1 h prior to each TS-exposure, with either vehicle, or the test compound at a selected dose, for example 10 mg/kg.
An additional group is dosed p.o., once daily, on days 6 to 11, with roflumilast at 5 mg/kg, 1 h prior to each TS-exposure. Dexamethasone is dosed p.o., twice daily, on days 6 to 11, at 0.3 mg/kg, 1 h prior to and 6 h after each TS-exposure.
For each mouse, a BAL is performed using 0.4 mL of PBS. […]
The lungs are dissected out and the left lobes are removed, snap-frozen and stored at −80° C. […] Cell data are presented as individual data points for each animal and the mean value calculated for each group. […]
Percentage inhibitions for the cell data are calculated using the formula below: […]

hENPP2 [2] = target: T1, hENPP2 (UniProtKB/SwissProt Sequence ref Q13822) (Homo sapiens (Human), UniProt Q13822); experiment: LPC hENPP2 assay (choline release, LPC as substrate); format: biochemical
Outline: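 Choline released from LPC by ENPP2 is quantified after stopping with stop-developer containing 0.6 U/mL choline oxidase, 0.6 U/mL peroxidase, 1.8 mM TOOS, 1.2 mM amino-antipyrine and 20 mM EGTA. Quinoneimine dye read at 555 nm after 30 min at room temperature.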

LPA 18:2 [3] = experiment: Rat whole blood (plasma) LPA assay; format: biochemical
Method: (§1) Whole blood is collected from rats or mouse by exsanguinations on sodium heparin tube, then after centrifugation at 3000 rpm for 15 min at 4° C., plasma is stored at −80° C. Compounds are diluted in DMSO in concentration dependent manner then 0.5 μL are dispensed into 96-wells plate placed in ice. Plasma is defrosted on ice then 49.5 μL of plasma are added into the well containing 0.5 μL of compound (1% DMSO final). Plates are covered with a lid in polypropylene and incubated at +37° C., 5% CO2, for 2 h under gentle shaking (except controls which are stored at −20° C.).
(§2) At the end of the incubation, controls are defrosted in ice and transferred in the incubated plates for LC-MS/MS analysis with a non GLP-validated method. For the analysis, plasma proteins from a 10 μL incubated plates are precipitated with an excess of methanol containing the internal standard, LPA 17:0. After centrifugation, the corresponding supernatant is injected on a C18 column. Analytes are eluted out of the column under isocratic conditions. An API5500 QTRAP mass spectrometer (ABSciex™) is used for the detection of LPA 18:2. No calibration curve is prepared for LPA 18:2, however relative quantities are evaluated based on the peak area.

hENPP2 [4] = target: T1, hENPP2; experiment: FS3 hENPP2 assay (fluorogenic substrate FS-3); format: biochemical; settings: hENPP2, FS-3 as substrate
Outline: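 Compound dilutions (1/5 steps, top concentration as added 20 μM) were preincubated 30 min at room temperature with hENPP2 (0.4 or 0.64 μg/mL final) in pH 8.0 Tris buffer containing NaCl, KCl, MgCl2, CaCl2 and 0.1% fatty-acid-free BSA. FS-3 (0.75 μM as added) was then hydrolysed for 30 min at 30 °C, and fluorescence was read at 485/520 nm.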

LPA 18:2 [5] = experiment: Mouse whole blood (plasma) LPA assay; format: biochemical
Method: as §1, §2

For `CCc1nc2cnc(N3CCN(CC(=O)N4CC(O)C4)CC3)cn2c1N(C)c1nc(-c2ccc(F)cc2)c(C#N)s1` [Cpd 2, 2-((2-ethyl-6-(4-(2-(3-hydroxyazetidin-1-yl)-2-oxoethyl)piperazin-1-yl)imidazo[1,2-a]pyrazin-3-yl)(methyl)amino)-4-(4-fluorophenyl) thiazole-5-carbonitrile], the “number of cells recovered in the BALF (macrophage cells, epithelial cells, neutrophils)” value (“number of cells recovered in the BALF” below) ([1]; 3 mg/kg twice daily p.o.) was “significantly inhibited”, the “number of cells recovered in the BALF” value ([1]; 10 mg/kg twice daily p.o.) was “significantly inhibited” and the IC50 (hENPP2 [2]) was 100 to 500 nM. The IC50 (LPA 18:2 [3]) was over 1000 nM.
`CCc1nc2cnc(N3CCN(C(=O)CN4CC(O)C4)CC3)cn2c1N(C)c1nc(-c2ccc(F)cc2)c(C#N)s1` [Cpd 12, 2-((2-ethyl-6-(4-(2-(3-hydroxyazetidin-1-yl)acetoyl)piperazin-1-yl)imidazo[1,2-a]pyrazin-3-yl)(methyl)amino)-4-(4-fluorophenyl) thiazole-5-carbonitrile] was tested, and the “number of cells recovered in the BALF” value ([1]; 10 mg/kg twice daily p.o.) was “significantly inhibited”, the IC50 (hENPP2 [2]) was over 1000 nM and the IC50 (hENPP2 [4]) was 0.01 to 25 nM. For the same compound, the IC50 (LPA 18:2 [3]) was over 1000 nM.
With `CCc1nc2cnc(C3=CCN(CC(=O)N4CC(O)C4)CC3)cn2c1N(C)c1nc(-c2ccc(F)cc2)c(C#N)s1` [Cpd 21, 2-((2-ethyl-6-(1-(2-(3-hydroxyazetidin-1-yl)-2-oxoethyl)-1,2,3,6-tetrahydropyridin-4-yl)imidazo[1,2-a]pyrazin-3-yl)(methyl)amino)-4-(4-fluorophenyl) thiazole-5-carbonitrile] the IC50 (LPA 18:2 [5]) was over 1000 nM, the IC50 (hENPP2 [2]) was 100 to 500 nM and the IC50 (hENPP2 [4]) was 0.01 to 25 nM.
